Test results reported in patent publication US20090124631A1, “Combination Therapy” (priority 2007, published 2009).

Legend:
[1] = test system: histone H3 acetylation in human bladder carcinoma T24 cells; assay: Cell-based ELISA for H3 acetylation
Description: (§1) Bladder carcinoma T24 cells were seeded in black plates with clear bottoms (Costar #3603) at 1×10^4 cells per well in a volume of 100 μl per well, and were allowed to settle for one day at 37° C. in a CO2 incubator. The cells were treated for 16 h with various concentrations of HDAC inhibitors. 3 h before the end of the treatment, Alamar Blue (BioSource) was added to monitor cell viability according to the manufacturer's instructions. At the end of the treatment time, Alamar Blue OD (at 570 nm and 600 nm) was recorded, then the cells were carefully washed in PBS, fixed in pre-chilled methanol for 10 min at −20° C., washed again twice in PBS, and blocked in PBS containing 0.1% Triton X-100 and 1% BSA for a minimum of 30 min. For H3 acetylation, rabbit-anti-acetyl-H3 (Upstate #06-599) was used as primary antibody at a dilution of 1:1000 for 45 min; the secondary antibody was HRP-coupled goat-anti-rabbit (Sigma #A-0545), used at 1:8000 for 45 min. For tubulin acetylation, the primary antibody was mouse anti-acetyl-tubulin (Sigma #T-6793, 1:2000, 45 min) while the secondary was HRP-coupled goat-anti-mouse antibody (Sigma #A-2304, 1:8000, 45 min). All antibodies were diluted in blocking buffer, and the cells were washed in blocking buffer following each antibody incubation. […] The fluorescent signal for acetylation was normalized by dividing with the viability data obtained from Alamar Blue. EC50 was defined as the concentration of compound which gave a signal half-way between the basal (untreated) level and the maximum level generated by high doses of the HDAC pan-inhibitor NVP-LAQ-824.

[2] = test system: tubulin acetylation in human bladder carcinoma T24 cells; assay: Cell-based ELISA for tubulin acetylation
Description: as §1

[3] = test system: bFGF transcription in human prostate cancer Du145 cells; assay: bFGF transcription in Du145 cells in vitro; type: cell-based; conditions: 3 μM, 24 hour treatment
Description: (§2) Human prostate cancer Du145 cells were exposed to Cpd A or SAHA (3 microM) for 24 hours. Total RNA was collected by Isogen (Nippongene, Tokyo, Japan) and reverse-transcribed to cDNA by ExScript® RT reagent Kit (TAKARA, Kyoto, Japan). The expression level of bFGF mRNA was detected by ABI7700 analyzer using probe/primer pre-mixture reagent (ABI, Cat# Hs00266645_m1, CA, USA) and TaqMan® Universal PCR Master Mix (ABI, Cat# 430-4437) as described in the ABI's protocol. The expression level of VEGF mRNA was detected in a similar manner using the appropriate probe/primer reagents.

[4] = test system: VEGF expression in DU145 cells; assay: VEGF transcription in Du145 cells in vitro; type: cell-based, human; conditions: 24 hour treatment
Description: as §2

H460 (NSCLC) xenografts = assay: H460 (NSCLC) xenograft, oral HDAC inhibitor with taxol; type: in vivo, mouse; conditions: Compound A 100 mg/kg or SAHA 120 mg/kg with taxol 60 mg/kg
Description: (§3) Antitumor studies were done using human H460 non-small cell lung tumor, Du145 prostate tumor, TSU-Pr1 prostate tumor, and AZ521 gastric tumor xenograft model in male BALBc/A nude mice (from Japan Crea Inc., Japan). Male nude mice were used at age 8-10 weeks. Human carcinoma cells were injected subcutaneously in the animal flank and allowed to form solid tumors. Tumor fragments (about 2 mm^3 fragments) were then removed and implanted subcutaneously through a small surgical incision to the right flank of other animals. […] Tumor volumes and gross body weight of animals were monitored twice weekly for up to 2 weeks for AZ-521 and TSU-Pr1, or 4 weeks for H460 and Du145 xenografts. Each experimental group contained 6 animals.

[5] = test system: TSP-1 expression in cancer cells (Du145, H460, A549); assay: TSP-1 transcription in cancer cells in vitro; type: cell-based, human; conditions: over time, 3 microM, 24 hours
Description: Cells were exposed by Cpd A or SAHA (3 microM) for 24 hours. Total RNA was collected by Isogen (Nippongene, Tokyo, Japan) and reverse-transcribed to cDNA by ExScript® RT reagent Kit (TAKARA, Kyoto, Japan). The expression level of TSP-1 mRNA was detected by ABI7700 analyzer using a probe/primer pre-mixture reagent (ABI, Cat#, CA, USA) and TaqMan® Universal PCR Master Mix (ABI, Cat# 430-4437) as described in the ABI's protocol.

[6] = test system: human H460 non-small cell lung tumor, Du145 prostate tumor, TSU-Pr1 prostate tumor, and AZ521 gastric tumor xenograft; assay: Xenograft combination studies with taxol (Example 15); type: in vivo, mouse; conditions: oral administration, nude mice with human lung, prostate and gastric tumors
Description: as §3

HDAC1 = target: T1, HDAC1 (Homo sapiens, UniProt Q13547); assay: Fluorescence-based HDAC enzyme assay, recombinant HDAC1; type: biochemical; conditions: recombinant human HDAC enzyme in vitro; read-out: IC50 (μM) HD1
T1 construct: cDNAs corresponding to the full length human HDAC1, 2, 3 and 11 were cloned into pBlueBac4.5 vector; FLAG (C); made in house; host or cells: Sf-9 insect cells (baculovirus)
T1 sequence (Q13547 whole entry): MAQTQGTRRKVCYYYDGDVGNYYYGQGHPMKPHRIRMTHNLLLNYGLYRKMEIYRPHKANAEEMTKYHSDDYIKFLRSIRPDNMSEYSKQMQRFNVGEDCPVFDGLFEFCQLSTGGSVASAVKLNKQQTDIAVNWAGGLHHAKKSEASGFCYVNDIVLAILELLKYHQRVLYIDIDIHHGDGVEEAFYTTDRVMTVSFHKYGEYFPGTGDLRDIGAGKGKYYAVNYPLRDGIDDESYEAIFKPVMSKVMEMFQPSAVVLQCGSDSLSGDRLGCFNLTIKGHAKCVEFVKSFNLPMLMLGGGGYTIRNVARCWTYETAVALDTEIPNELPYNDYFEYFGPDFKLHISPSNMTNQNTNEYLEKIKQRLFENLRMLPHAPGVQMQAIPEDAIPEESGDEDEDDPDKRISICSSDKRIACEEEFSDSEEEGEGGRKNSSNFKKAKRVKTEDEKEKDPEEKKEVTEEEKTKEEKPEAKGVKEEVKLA
Text: (§4) cDNAs of human HDAC1-8 and 11 were generated by RT-PCR reactions using primers complementary to the 5′ and 3′ coding sequence of human HDAC gene sequences in GenBank. cDNAs corresponding to the full length human HDAC1, 2, 3 and 11 were cloned into pBlueBac4.5 vector (Invitrogen). The constructs were used to generate recombinant baculoviruses using the Bac-N-Blue™ DNA according to the manufacturer's instructions (Invitrogen). The recombinant HDAC1, 2, 3, 11 proteins produced harbor a FLAG tag at their C-termini. cDNAs encoding truncated versions of HDAC4, 5 and 7 encompassing their deacetylase domains were cloned into pDEST10 as an N-terminal hexahistidine fusion protein and recombinant baculoviruses were generated using the Bac-to-Bac™ Baculovirus expression system (Invitrogen). HDAC6 and 8 were cloned as full length N-terminally His-tagged protein. All HDAC proteins were expressed in insect Sf-9 cells (Spodoptera frugiperdai) upon infection with recombinant baculovirus. HDAC1 enzyme was purified from the Q-sepharose FF column (Amersham Pharmacia Biotech, Baie d'Urfe QC, Canada) followed by an anti-FLAG immunoaffinity column (Sigma). […] HDAC4, 5, 6, 7 and 8 were purified using either Ni-NTA resin (QIAGEN Mississauga ON, Canada) or His-Select resin (Sigma) with step washes and elution with different concentrations of imidazole in Buffer containing 25 mM Tris (or NaPO4) pH 8.0, 10% glycerol and 150 mM or 500 mM NaCl.
(§5) Boc-Lys(Ac)-AMC (for HDAC1, 2, 3, 6, and 8 enzymes), which was purchased from Bachem Biosciences Inc., (King of Prussia, Philadelphia) were added into enzyme-compound mixture and incubated at 37° C. For HDAC4, 5, 7 assays, Boc-Lys(TFA)-AMC, which was synthesized in house, was used as substrate and 0.1% BSA was added to the buffer. […] Reaction time was predetermined to ensure that reaction was linear for the incubation time. Reaction was stopped by adding a freshly prepared trypsin (1 mg/ml final concentration) with 1 μM TSA (Biomol) in assay buffer. After 30 minutes, fluorescence was measured using a fluorometer (SPECTRAMAX GeminiXS, Molecular Devices, Sunnylvale, Calif.).

HDAC2 = target: T2, HDAC2 (Homo sapiens, UniProt Q92769); assay: Fluorescence-based HDAC enzyme assay, recombinant HDAC2; type: biochemical; conditions: recombinant human HDAC enzyme in vitro; read-out: IC50 (μM) HD2
T2 construct: cDNAs corresponding to the full length human HDAC1, 2, 3 and 11 were cloned into pBlueBac4.5 vector; FLAG (C); made in house; host or cells: Sf-9 insect cells (baculovirus)
T2 sequence (Q92769 whole entry): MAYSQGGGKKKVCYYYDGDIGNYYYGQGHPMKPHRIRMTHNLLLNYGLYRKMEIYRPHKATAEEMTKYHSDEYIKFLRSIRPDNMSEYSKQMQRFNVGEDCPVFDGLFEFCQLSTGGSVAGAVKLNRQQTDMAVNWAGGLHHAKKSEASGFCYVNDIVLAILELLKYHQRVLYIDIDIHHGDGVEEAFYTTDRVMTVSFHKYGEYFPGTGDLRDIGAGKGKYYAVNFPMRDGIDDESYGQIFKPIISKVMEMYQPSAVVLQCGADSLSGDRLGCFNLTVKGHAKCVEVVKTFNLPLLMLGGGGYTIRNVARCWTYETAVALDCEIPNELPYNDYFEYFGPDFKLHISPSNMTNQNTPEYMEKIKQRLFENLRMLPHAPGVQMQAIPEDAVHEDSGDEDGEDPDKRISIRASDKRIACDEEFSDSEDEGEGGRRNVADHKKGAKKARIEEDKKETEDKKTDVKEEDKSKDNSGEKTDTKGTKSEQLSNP
Text: as §4, §5

HDAC3 = target: T3, HDAC3 (Homo sapiens, UniProt O15379); assay: Fluorescence-based HDAC enzyme assay, recombinant HDAC3; type: biochemical; conditions: recombinant human HDAC enzyme in vitro; read-out: IC50 (μM) HD3
T3 construct: cDNAs corresponding to the full length human HDAC1, 2, 3 and 11 were cloned into pBlueBac4.5 vector; FLAG (C); made in house; host or cells: Sf-9 insect cells (baculovirus)
T3 sequence (O15379 whole entry): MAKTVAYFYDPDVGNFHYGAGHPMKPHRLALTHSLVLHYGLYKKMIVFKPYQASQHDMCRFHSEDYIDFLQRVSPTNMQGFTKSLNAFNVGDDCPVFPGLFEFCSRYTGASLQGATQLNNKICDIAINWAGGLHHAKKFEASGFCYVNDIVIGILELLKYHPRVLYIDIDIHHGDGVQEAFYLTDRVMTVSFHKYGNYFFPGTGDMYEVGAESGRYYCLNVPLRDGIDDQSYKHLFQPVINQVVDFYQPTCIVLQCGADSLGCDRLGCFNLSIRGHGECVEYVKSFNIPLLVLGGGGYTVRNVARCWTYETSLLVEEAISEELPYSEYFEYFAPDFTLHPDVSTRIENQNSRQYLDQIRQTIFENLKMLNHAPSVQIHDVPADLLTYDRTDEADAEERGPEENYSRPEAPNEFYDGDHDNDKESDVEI
Text: cDNAs of human HDAC1-8 and 11 were generated by RT-PCR reactions using primers complementary to the 5′ and 3′ coding sequence of human HDAC gene sequences in GenBank. cDNAs corresponding to the full length human HDAC1, 2, 3 and 11 were cloned into pBlueBac4.5 vector (Invitrogen). The constructs were used to generate recombinant baculoviruses using the Bac-N-Blue™ DNA according to the manufacturer's instructions (Invitrogen). The recombinant HDAC1, 2, 3, 11 proteins produced harbor a FLAG tag at their C-termini. cDNAs encoding truncated versions of HDAC4, 5 and 7 encompassing their deacetylase domains were cloned into pDEST10 as an N-terminal hexahistidine fusion protein and recombinant baculoviruses were generated using the Bac-to-Bac™ Baculovirus expression system (Invitrogen). HDAC6 and 8 were cloned as full length N-terminally His-tagged protein. All HDAC proteins were expressed in insect Sf-9 cells (Spodoptera frugiperdai) upon infection with recombinant baculovirus. HDAC1 enzyme was purified from the Q-sepharose FF column (Amersham Pharmacia Biotech, Baie d'Urfe QC, Canada) followed by an anti-FLAG immunoaffinity column (Sigma). HDAC2, 3 and 11 were purified using Flag-antibody immunoaffinity purification. HDAC4, 5, 6, 7 and 8 were purified using either Ni-NTA resin (QIAGEN Mississauga ON, Canada) or His-Select resin (Sigma) with step washes and elution with different concentrations of imidazole in Buffer containing 25 mM Tris (or NaPO4) pH 8.0, 10% glycerol and 150 mM or 500 mM NaCl.
Recombinant HDAC enzymes were incubated with diluted compounds in assay buffer (25 mM Hepes, pH 8.0, 137 mM NaCl, 1 mM MgCl2 and 2.7 mM KCl) for 10 minutes at ambient temperatures in black 96-well plate. Boc-Lys(Ac)-AMC (for HDAC1, 2, 3, 6, and 8 enzymes), which was purchased from Bachem Biosciences Inc., (King of Prussia, Philadelphia) were added into enzyme-compound mixture and incubated at 37° C. […] After 30 minutes, fluorescence was measured using a fluorometer (SPECTRAMAX GeminiXS, Molecular Devices, Sunnylvale, Calif.). […]

[7] = test system: recombinant human HDAC enzymes; assay: HDAC isotype selectivity across recombinant HDAC enzymes; type: biochemical; conditions: from Table 1
Text: as §4, §5

[8] = test system: mouse endothelial MS-1 cells; assay: Growth inhibition of MS-1 cells by taxol with recombinant TSP-1; type: cell-based; conditions: recombinant TSP1 10 ug/ml, 72 hour
Description: Mouse endothelial MS-1 cells were seeded into 96 well-plate and incubated in 5% CO2 incubator for 24 hours. Taxol at various concentrations was added into cell culture and 6 hours later media were replaced with fresh media containing recombinant TSP1 (10 ug/ml) but without taxol. After 72 hour incubation, the growth inhibitory effect was determined by crystal violet staining.

`O=C(CCCCCCC(=O)Nc1ccccc1)NO` [SAHA, reference compound] was tested, and the “histone H3 acetylation” value [1] was “Nonselective effect”, the tubulin acetylation [2] was “Nonselective effect” and the bFGF transcription [3] was “Reduction”. The VEGF expression [4] was “Reduction”, the “tumor response to combination therapy with taxol” value (H460 (NSCLC) xenografts) was “tumor regression” and the TSP-1 expression [5] was “Induction”. For the same compound, the “antitumor activity of taxol” value [6] was “Potentiation”.

In the case of `O=C(/C=C/c1ccc(CN(CCO)CCc2c[nH]c3ccccc23)cc1)NO` [NVP-LAQ824], the “histone H3 acetylation” value [1] is reported as “Nonselective effect” and the tubulin acetylation [2] is reported as “Nonselective effect”.

With `O=C(Nc1ccccc1)c1ccc(CNc2nccc(-c3cccnc3)n2)cc1` [Compound C] the IC50 (HDAC1) was greater than 10 µM, the IC50 (HDAC2) was greater than 10 µM and the IC50 (HDAC3) was greater than 10 µM. The HDAC isotype selectivity [7] was “inactive”.

“Recombinant TSP-1: recombinant thrombospondin-1, agonist of TSP1 receptor” was tested, and the “proapoptotic effect of taxol” value [8] was “Potentiates”.
